# Literature values in patent publication US11491120B2, “Pharmacological prophylactics against stress-induced affective disorders in females” (The Trustees of Columbia University in the City of New York, priority 2017, dated 2022).
# Details: following ketamine infusion; cited from earlier work
compound,measurement,value
"N[C@@]1(c2ccccc2Cl)CCC[C@@H](O)C1=O [(2R,6R;2S,6S)-HNK, (2R,6R;2S,6S)-hydroxynorketamine]",Share of the original ketamine dose found as metabolite in the brain,15%
